In patent US20120107398A1, “PHARMACEUTICAL COMPOSITIONS” (BOEHRINGER INGELHEIM INTERNATIONAL GMBH, priority 2010, published 2012):
Counter-ions that a name gives are not always drawn.

Test: Solubility of pioglitazone hydrochloride
Type: physicochemical
Procedure: For pioglitazone hydrochloride the intrinsic dissolution rates in aqueous media are only above 1000 μg/cm^2/min at pH 1, whereas for less acidic solutions (e.g. pH 2) the intrinsic dissolution rates are below 100 μg/cm^2/min. Therefore, the intrinsic dissolution rate of pioglitazone hydrochloride may be rate limiting for dissolution/absorption of the composition and pose an additional risk for providing similar dissolution profiles of pioglitazone hydrochloride in the composition to the original mono tablets (e.g. Actos) or combination market tablets (e.g. Duetact, Competact) and/or for matching bioequivalence with the original mono or combination market tablets.

- solubility in strongly acidic media (strongly acidic media): slightly better solubility
- solubility in water (water): practically insoluble
- solubility in weak acidic and neutral to basic media (weak acidic and neutral to basic media): very poor solubility
Compound: CCc1ccc(CCOc2ccc(CC3SC(=O)NC3=O)cc2)nc1 (stereo not drawn) [pioglitazone hydrochloride]
